Laboratory results published in patent US20230293519A1, “INTEGRIN INHIBITORS AND USES THEREOF IN COMBINATION WITH OTHER AGENTS” (Pliant Therapeutics, Inc., priority 2021, published 2023).
“Also recorded” adds a separate entry of the source.

Legend:
SMAD3 phosphorylation = assay: Murine bleomycin model: SMAD3 phosphorylation; type: in vivo, mouse; settings: bleomycin mice
Protocol: Mice (C57BL/6) were divided into healthy (n=15), vehicle-treated (n=15), and test article-treated (n=15 per dose) groups. Mice in the vehicle and test article-treated groups were administered 3 U/kg of bleomycin (Teva Pharmaceuticals; North Wales, PA) via oropharyngeal aspiration while under anesthesia on day 0. Healthy animals were administered water in a similar fashion. Starting on day 7, mice in the control group were administered PBS vehicle, 130 uL, by oral gavage, BID for 14 days. Also starting on day 7, mice in the test group were administered compound 5 in PBS by oral gavage, BID for 14 days, at relative dosages of 1x, 2.5x and 5x. […] From day 14 through day 21, 9 of the 15 mice were administered ^2H2O for labeling. All mice were sacrificed on day 21 and tissues were collected. Samples were prepared for analysis either directly from lung tissue, or by bronchoalveolar lavage, which washes out the bronchiolar and alveolar space with saline to produce a bronchoalveolar lavage fluid (BALF) in which 80-90% of cells are alveolar macrophages.
FIG. 4C is a graph showing that compared to the healthy mice, lung tissue in the vehicle-treated mice experienced a substantial increase in SMAD3 phosphorylation, which is a measure of TGF-β signaling-related kinase activity. […]

pSMAD2:SMAD2 ratio = pSMAD2:SMAD2 ratio in BAL of healthy human subjects; type: in vivo; settings: subjects with Cmax above 700 ng/mL; Day 7 vs baseline (Day -1)
Protocol: In order to evaluate the change of pSMAD2 as a biomarker of TGF-β activity following administration of an integrin inhibitor, and to determine a therapeutically effective dosage and an effective blood plasma Cmax of the integrin inhibitor, healthy subjects were administered compound 5, a dual selective αvβ6/avβ1-integrin inhibitor, and the corresponding Cmax levels and decrease in phosphorylation levels and were determined.
Healthy non-smoking adult males without history of lung disease were selected as subjects and were randomized into 4 cohorts. Broncoalevaolar lavage samples were obtained from all subjects 1 day prior to start of treatment. Cohorts 1 and 2 were administered 20 mg of a compound daily, wherein 3 subjects were administered the dual selective αvβ6/αvβ1-integrin inhibitor (compound 5) per every 1 subject receiving a placebo compound. Cohorts 3 and 4 were administered 40 mg of a compound daily, wherein 3 subjects were administered the dual selective αvβ6/αvβ1- integrin inhibitor (compound 5) per every 1 subject receiving a placebo compound. BAL samples and blood samples were taken from all subjects on Day -1 (baseline) and on Day 7 (end of treatment).

[1] = system: patients with idiopathic pulmonary fibrosis (IPF); assay: Phase 2a trial in IPF: safety and tolerability
Text: Approximately 80% of the enrolled patients were on standard of care and were equally distributed between nintedanib and pirfenidone.

[2] = system: fibrosis-related gene expression in explanted human lung tissue from patients with idiopathic pulmonary fibrosis; assay: nCounter Fibrosis Panel gene expression in precision cut lung slices from IPF explants; type: cell-based; settings: IPF PCLS, 7 days, vs DMSO
Text: Fibrosis-related gene expression in explanted human lung tissue from patients with idiopathic pulmonary fibrosis was examined in order to determine what impact combining Compound 5 treatment with standard-of-care drugs nintedanib or pirfenidone, has on the expression of such genes.
Samples used for this analysis are a subset (n = 4 of 7) of the lungs previously reported on in Decaris et al., Respir Res (2021) 22:265 (FIGS. 6 A and B). Briefly, tissue samples from patients with IPF were acquired at the time of lung transplantation. Precision cut lung slices were generated from the explants and cultured for 7 days in the presence of inhibitors (Compound 5, nintedanib, pirfenidone) at clinically relevant concentrations or vehicle (DMSO). Treated slices were lysed in mRNA-compatible buffer for gene expression analysis. For this study, the lysate from n = 6 slices per treatment per lung were pooled for analysis using the nCounter Fibrosis Panel (Nanostring) on the nCounter Max analyzer (Nanostring). This commercially available panel of 770 genes includes genes related to initial tissue damage response, chronic inflammation, proliferation of pro-fibrotic cells, and tissue modification leading to fibrotic disease. Technical quality control and normalization of raw Nanostring mRNA count data was performed using an R framework developed by Bhattacharya et al. (Bhattacharya A. et al., Brief Bioinform. 2021 May 20;22(3):bbaa163). The R packages limma (see URL www.bioconductor.org/packages/release/bioc/html/limma.html) and voom (Law, C.W. et al., Genome Biol. 2014 Feb 3;15(2):R29) were used to detect differentially expressed genes. Benjamini-Hochberg False Discovery Rate (FDR = 5%) was used to adjust p-values for multiple comparisons.

**Q.** With `COCCN(CCCCc1ccc2c(n1)NCCC2)CC[C@H](Nc1ncnc2ccccc12)C(=O)O` [Compound 5, (S)-4-((2-methoxyethyl)(4-(5,6,7,8-tetrahydro-1,8-naphthyridin-2-yl)butyl)amino)-2-(quinazolin-4-ylamino)butanoic acid] as the molecule, how does the “pSMAD3 levels in the lung, % of the untreated levels” value (SMAD3 phosphorylation) read?
**A.** approximately 50%

**Q.** And the “SMAD3 phosphorylation in lung tissue vs vehicle” value (SMAD3 phosphorylation; 1x, 2.5x, 5x dose PO BID 14 days from day 7)?
**A.** substantial, statistically significant dose-dependent reductions

**Q.** What about the “reduction in pSMAD2:SMAD2 ratio in BAL” value (pSMAD2:SMAD2 ratio) of the same molecule?
**A.** ≥ 50%

**Q.** What about the “discontinuations due to adverse events” value ([1]; 12 weeks) of the same molecule?
**A.** no discontinuations due to adverse events

**Q.** And the “severity of most treatment emergent adverse events (TEAE)” value ([1]; 12 weeks)?
**A.** mild or moderate

**Q.** What about the “treatment related deaths or drug related serious adverse events (SAE)” value ([1]; 12 weeks) of the same molecule?
**A.** No treatment related deaths or drug related serious adverse events; also recorded: No treatment related SAEs or deaths

**Q.** And the “patients completing 12 weeks of treatment (65 of 67)” value ([1]; 40, 80, 160 mg once daily)?
**A.** 97%

**Q.** What about the tolerability ([1]; 40, 80, 160 mg once daily, 12 weeks) of the same molecule?
**A.** safe and well tolerated

**Q.** And the serious adverse events ([1]; Compound 5 alone)?
**A.** did not result in serious adverse events

**Q.** And the “% Reduction of APOC2 expression” value [2]?
**A.** -1.20%

**Q.** And the “% Reduction of CDH2 expression” value [2]?
**A.** 23.87%

**Q.** And the “% Reduction of COL1A1 expression” value [2]?
**A.** 38.78%

**Q.** And the “% Reduction of COL4A2 expression” value [2]?
**A.** 17.74%

**Q.** And the “% Reduction of COL5A3 expression” value [2]?
**A.** 30.59%

**Q.** What about the “% Reduction of FAP expression” value [2] of the same molecule?
**A.** 37.30%

**Q.** And the “% Reduction of FCGR3A/B expression” value [2]?
**A.** 28.54%

**Q.** And the “% Reduction of ITGAS expression” value [2]?
**A.** 26.20%

**Q.** What about the “% Reduction of ITGB3 expression” value [2] of the same molecule?
**A.** -2.48%

**Q.** And the “% Reduction of LOX expression” value [2]?
**A.** 39.38%

**Q.** What about the “% Reduction of LOXL2 expression” value [2] of the same molecule?
**A.** 15.32%

**Q.** And the “% Reduction of NID1 expression” value [2]?
**A.** 19.25%

**Q.** What about the “% Reduction of PDGFRB expression” value [2] of the same molecule?
**A.** 37.29%

**Q.** What about the “% Reduction of POSTN expression” value [2] of the same molecule?
**A.** 48.61%

**Q.** What about the “% Reduction of SERPINE1 expression” value [2] of the same molecule?
**A.** 35.77%

**Q.** What about the “% Reduction of SERPINH1 expression” value [2] of the same molecule?
**A.** 22.68%

**Q.** And the “% Reduction of SPP1 expression” value [2]?
**A.** -15.73%

**Q.** And the “% Reduction of TGFB1 expression” value [2]?
**A.** 1.68%

**Q.** What about the “% Reduction of THBS2 expression” value [2] of the same molecule?
**A.** 31.47%

**Q.** And the “logFC of ALDH7A1 expression” value [2]?
**A.** 0.57

**Q.** And the “logFC of APOA2 expression” value [2]?
**A.** 0.6135

**Q.** And the “logFC of CCL13 expression” value [2]?
**A.** 0.9445

**Q.** And the “logFC of CD19 expression” value [2]?
**A.** 0.5301

**Q.** And the “logFC of CIITA expression” value [2]?
**A.** 0.5895

**Q.** And the “logFC of COL1A2 expression” value [2]?
**A.** -0.8062

**Q.** What about the “logFC of COL3A1 expression” value [2] of the same molecule?
**A.** -0.7449

**Q.** What about the “logFC of COL5A1 expression” value [2] of the same molecule?
**A.** -0.9282

**Q.** And the “logFC of COL6A3 expression” value [2]?
**A.** -0.8313

**Q.** What about the “logFC of COL10A1 expression” value [2] of the same molecule?
**A.** -2.782

**Q.** And the “logFC of CXCL2 expression” value [2]?
**A.** 0.7069

**Q.** And the “logFC of CXCR4 expression” value [2]?
**A.** -0.7822

**Q.** And the “logFC of FAP expression” value [2]?
**A.** -0.6735

**Q.** What about the “logFC of FN1 expression” value [2] of the same molecule?
**A.** -0.662

**Q.** And the “logFC of FZD5 expression” value [2]?
**A.** 0.4466

**Q.** What about the “logFC of GPC4 expression” value [2] of the same molecule?
**A.** 0.486

**Q.** What about the “logFC of GREM1 expression” value [2] of the same molecule?
**A.** -0.8269

**Q.** What about the “logFC of IFI6 expression” value [2] of the same molecule?
**A.** 0.9391

**Q.** What about the “logFC of IFI35 expression” value [2] of the same molecule?
**A.** 0.4412

**Q.** And the “logFC of LOX expression” value [2]?
**A.** -0.722

**Q.** And the “logFC of LOXL1 expression” value [2]?
**A.** -0.6279

**Q.** What about the “logFC of LTA expression” value [2] of the same molecule?
**A.** 0.4994

**Q.** What about the “logFC of MARCO expression” value [2] of the same molecule?
**A.** -0.9183

**Q.** What about the “logFC of MET expression” value [2] of the same molecule?
**A.** 0.6707

**Q.** What about the “logFC of MMP8 expression” value [2] of the same molecule?
**A.** -0.8754

**Q.** And the “logFC of MMP11 expression” value [2]?
**A.** -0.6749

**Q.** And the “logFC of NOS1 expression” value [2]?
**A.** 0.6684

**Q.** And the “logFC of OAS1 expression” value [2]?
**A.** 0.6104

**Q.** What about the “logFC of PDGFRB expression” value [2] of the same molecule?
**A.** -0.6732

**Q.** And the “logFC of PECAM1 expression” value [2]?
**A.** -0.8251

**Q.** What about the “logFC of PLPP4 expression” value [2] of the same molecule?
**A.** -0.6364

**Q.** What about the “logFC of POSTN expression” value [2] of the same molecule?
**A.** -0.9604

**Q.** And the “logFC of PTGER4 expression” value [2]?
**A.** 0.439

**Q.** What about the “logFC of SERPINE1 expression” value [2] of the same molecule?
**A.** -0.6387

**Q.** What about the “logFC of SMAD3 expression” value [2] of the same molecule?
**A.** 0.4528

**Q.** And the “logFC of TIMP1 expression” value [2]?
**A.** -0.6101

**Q.** And the “logFC of TNF expression” value [2]?
**A.** 0.4803

**Q.** And the “logFC of TTN expression” value [2]?
**A.** 0.5832

**Q.** And the “logFC of WWC1 expression” value [2]?
**A.** 0.5885

**Q.** And the “logFC of XAF1 expression” value [2]?
**A.** 0.4529
